The test has as its system P388 leukemia ip, CD2F1 mice, survival T/C. The test can be described thus: NCI In Vivo Anticancer Drug Screen. Data for tumor model P388 Leukemia (intraperitoneal) in CD2F1 (CDF1) mice. The conditions noted are these: endpoint: median survival time, higher = longer survival. In outline: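 Mice carrying the transplanted tumor received test compound or vehicle. Survival was recorded in each group, and the value is the treated-group measurement divided by that of the vehicle-treated control group.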

The mark [1] stands for this setting: dose: 60.0 mg/kg/injection, schedule: Q01DX005 (ip), vehicle: saline with Tween-80.
[2] abbreviates: dose: 12.5 mg/kg/injection, schedule: Q01DX009 (ip), vehicle: saline with Tween-80.
The mark [3] stands for this setting: dose: 25.0 mg/kg/injection, schedule: Q01DX009 (ip), vehicle: saline with Tween-80.
Setting [4] is: dose: 50.0 mg/kg/injection, schedule: Q01DX009 (ip), vehicle: saline with Tween-80.
The mark [5] stands for this setting: dose: 100.0 mg/kg/injection, schedule: Q01DX009 (ip), vehicle: saline with Tween-80.
Setting [6] is: dose: 50.0 mg/kg/injection, schedule: Q01DX005 (ip), vehicle: saline with Tween-80.
Setting [7] is: dose: 100.0 mg/kg/injection, schedule: Q01DX005 (ip), vehicle: saline with Tween-80.
The mark [8] stands for this setting: dose: 200.0 mg/kg/injection, schedule: Q01DX005 (ip), vehicle: saline with Tween-80.
Setting [9] is: dose: 200.0 mg/kg/injection, schedule: Q01DX009 (ip), vehicle: saline with Tween-80.
[10] abbreviates: dose: 400.0 mg/kg/injection, schedule: Q01DX009 (ip), vehicle: saline with Tween-80.
Setting [11] is: dose: 50.0 mg/kg/injection, schedule: Q01DX001 (ip), vehicle: Klucel (hydroxypropylcellulose) (HPC).
[12] abbreviates: dose: 100.0 mg/kg/injection, schedule: Q01DX001 (ip), vehicle: Klucel (hydroxypropylcellulose) (HPC).
Setting [13] is: dose: 200.0 mg/kg/injection, schedule: Q01DX001 (ip), vehicle: Klucel (hydroxypropylcellulose) (HPC).

“And” between values parts separate entries of the source, which are not always exact repeats. Equal values may be shown once. Toxic doses and inconclusive results are not listed.

`C[n+]1c(-c2ccc(/C=N/Nc3ccnc(N/N=C/c4ccc(-c5cn6ccccc6[n+]5C)cc4)n3)cc2)cn2ccccc21`: the T/C by setting is: (dose: 30.0 mg/kg/injection, schedule: Q01DX005 (ip), vehicle: saline with Tween-80) 150 % of control; under setting [1], 88 % of control.

Take `Cc1ccc(SSC(=S)Nc2ccccc2)cc1`: the T/C runs as follows: under setting [2], 93 % of control; under setting [3], 90 % of control; under setting [4], 100 % of control and 114 % of control; under setting [5], 114 % of control.

With `CCOC(=O)c1[nH]c(=O)[nH]c(=O)c1CBr`, the T/C by setting is: (dose: 12.5 mg/kg/injection, schedule: Q01DX009 (ip), vehicle: distilled water + Tween-80) 98 % of control; (dose: 25.0 mg/kg/injection, schedule: Q01DX009 (ip), vehicle: distilled water + Tween-80) 98 % of control; (dose: 50.0 mg/kg/injection, schedule: Q01DX009 (ip), vehicle: distilled water + Tween-80) 98 % of control; (dose: 100.0 mg/kg/injection, schedule: Q01DX009 (ip), vehicle: distilled water + Tween-80) 98 % of control.

As for `Nc1n[nH][nH]c1=O`, the T/C reads like this: (dose: 60.0 mg/kg/injection, schedule: Q01DX005 (ip), vehicle: saline) 100 % of control; (dose: 120.0 mg/kg/injection, schedule: Q01DX005 (ip), vehicle: saline) 116 % of control; (dose: 240.0 mg/kg/injection, schedule: Q01DX005 (ip), vehicle: saline) 100 % of control.

As to `Nc1n[nH]c(=O)c2cccnc12`, the T/C is, setting by setting: under setting [6], 97 % of control; under setting [7], 99 % of control; under setting [8], 101 % of control.

Consider `c1ccc2c(c1)Nc1c(ccc3ccccc13)S2`, for which the T/C under setting [4] is 95 % of control; the T/C (dose: 50.0 mg/kg/injection, schedule: Q01DX009 (ip), vehicle: saline) is 102 % of control; the T/C under setting [5] was 112 % of control; the T/C (dose: 100.0 mg/kg/injection, schedule: Q01DX009 (ip), vehicle: saline) is 98 % of control; the T/C under setting [9] is 113 % of control; the T/C (dose: 200.0 mg/kg/injection, schedule: Q01DX009 (ip), vehicle: saline) was 109 % of control. For the same compound, the T/C is 113 % of control under setting [10] and 100 % of control (dose: 400.0 mg/kg/injection, schedule: Q01DX009 (ip), vehicle: saline).

For the compound `Cc1nc2n(c1C(N)=O)CCS2`, the T/C reads like this: under setting [11], 101 % of control; (dose: 60.0 mg/kg/injection, schedule: Q01DX005 (ip), vehicle: Klucel (hydroxypropylcellulose) (HPC)) 96 % of control; under setting [12], 106 % of control; (dose: 100.0 mg/kg/injection, schedule: Q04DX002 (ip), vehicle: Klucel (hydroxypropylcellulose) (HPC)) 102 % of control; (dose: 120.0 mg/kg/injection, schedule: Q01DX005 (ip), vehicle: Klucel (hydroxypropylcellulose) (HPC)) 98 % of control; under setting [13], 99 % of control. Also, the T/C was 104 % of control (dose: 200.0 mg/kg/injection, schedule: Q04DX002 (ip), vehicle: Klucel (hydroxypropylcellulose) (HPC)) and 94 % of control (dose: 240.0 mg/kg/injection, schedule: Q01DX005 (ip), vehicle: Klucel (hydroxypropylcellulose) (HPC)).

In the case of `COC(=O)C1=C(C(=O)OC)[C@@H]2CCC[C@H]1[C@H]1[C@@H]2N=NN1c1ccccc1`, the T/C by setting is: under setting [6], 100 % of control; under setting [7], 98 % of control; under setting [8], 100 % of control.

Regarding `O=S(=O)(/N=C1C=C/C(=N\S(=O)(=O)c2ccccc2)C2C/1C2(c1ccccc1)c1ccccc1)c1ccccc1` (configuration not stated), the T/C reads like this: under setting [11], 98 % of control; under setting [12], 97 % of control; under setting [13], 99 % of control.

In the case of `Cn1cnc([N+](=O)[O-])c1[Se]c1nc(N)nc2c1ncn2C1OC(CO)C(O)C1O` (configuration not stated), the T/C (dose: 2.0 mg/kg/injection, schedule: Q01DX009 (ip), vehicle: distilled water + Tween-80) is 116 % of control; the T/C (dose: 4.0 mg/kg/injection, schedule: Q01DX009 (ip), vehicle: distilled water + Tween-80) was 121 % of control; the T/C (dose: 32.0 mg/kg/injection, schedule: Q01DX009 (ip), vehicle: distilled water + Tween-80) is 160 % of control; the T/C (dose: 32.0 mg/kg/injection, schedule: Q01DX009 (ip), vehicle: water) was 175 % of control; the T/C (dose: 64.0 mg/kg/injection, schedule: Q01DX009 (ip), vehicle: water) was 100 % of control.

As for `Nc1ccc2ccc3ccc(N)nc3c2n1`, the T/C runs as follows: under setting [1], 103 % of control; (dose: 120.0 mg/kg/injection, schedule: Q01DX005 (ip), vehicle: saline with Tween-80) 91 % of control.

On to `CCCc1cccc2c3c([nH]c12)C(CC)(CC(=O)O)CCC3` (configuration not stated), for which the T/C under setting [2] is 97 % of control; the T/C under setting [3] was 106 % of control; the T/C under setting [4] is 98 % of control and 97 % of control.

Turning to `O=C(Nc1ccc(C(=O)Nc2cc(S(=O)(=O)O)cc3cc(S(=O)(=O)O)cc(O)c23)cc1)c1ccccc1`, the T/C by setting is: under setting [5], 98 % of control; under setting [9], 106 % of control; under setting [10], 103 % of control.

Regarding `C=CCSc1nc2ccc(N=Cc3ccc([N+](=O)[O-])cc3)cc2s1`, the T/C was 99 % of control (dose: 6.25 mg/kg/injection, schedule: Q01DX009 (ip), vehicle: Klucel (hydroxypropylcellulose) (HPC)); 98 % of control (dose: 12.5 mg/kg/injection, schedule: Q01DX009 (ip), vehicle: Klucel (hydroxypropylcellulose) (HPC)); 105 % of control (dose: 25.0 mg/kg/injection, schedule: Q01DX009 (ip), vehicle: Klucel (hydroxypropylcellulose) (HPC)).

As to `O=C(O)C1=Cc2ccccc2OC1`, the T/C was 101 % of control (dose: 100.0 mg/kg/injection, schedule: Q04DX003 (ip), vehicle: Klucel (hydroxypropylcellulose) (HPC)); 107 % of control (dose: 200.0 mg/kg/injection, schedule: Q04DX003 (ip), vehicle: Klucel (hydroxypropylcellulose) (HPC)); 105 % of control (dose: 400.0 mg/kg/injection, schedule: Q04DX003 (ip), vehicle: Klucel (hydroxypropylcellulose) (HPC)).

On to `COc1cc2c(cc1OC)C(CSC)Cc1cc(OC)c(OC)cc1N(C)CCC2` (configuration not stated), for which the T/C (dose: 100.0 mg/kg/injection, schedule: Q04DX003 (ip), vehicle: saline with Tween-80) was 102 % of control; the T/C (dose: 200.0 mg/kg/injection, schedule: Q04DX003 (ip), vehicle: saline with Tween-80) was 93 % of control; the T/C (dose: 400.0 mg/kg/injection, schedule: Q04DX003 (ip), vehicle: saline with Tween-80) was 93 % of control.

Turning to `c1cnc(Nc2c3ccccc3nc3ccccc23)nc1`, the T/C by setting is: (dose: 100.0 mg/kg/injection, schedule: Q04DX002 (ip), vehicle: saline with Tween-80) 103 % of control; (dose: 200.0 mg/kg/injection, schedule: Q04DX002 (ip), vehicle: saline with Tween-80) 103 % of control; (dose: 400.0 mg/kg/injection, schedule: Q04DX002 (ip), vehicle: saline with Tween-80) 94 % of control.

Regarding `C/C=C/N1C(=O)C2C=CC1C(C(C)=O)C2` (configuration not stated), the T/C is 94 % of control (dose: 100.0 mg/kg/injection, schedule: Q04DX002 (ip), vehicle: saline); 98 % of control (dose: 200.0 mg/kg/injection, schedule: Q04DX002 (ip), vehicle: saline); 96 % of control (dose: 400.0 mg/kg/injection, schedule: Q04DX002 (ip), vehicle: saline).

For `O=[N+]([O-])c1ccc(C=Nc2ccc3c4c(cccc24)-c2ccccc2-3)cc1`, the T/C was 101 % of control under setting [4], 90 % of control under setting [5] and 108 % of control under setting [9].

With `O=[N+]([O-])C1=CC(=N/Br)/C=CC/1=N/Br`, the T/C under setting [6] is 94 % of control, the T/C under setting [7] is 100 % of control and the T/C under setting [8] is 118 % of control.
